Among the data in patent US20090137580A1, “Fused Heterocyclic Derivatives and Use Thereof” (Takeda Pharmaceutical Company Limited, priority 2005, published 2009) are IC50 and inhibition values, retold here.

One may read the IC50 as the concentration needed to halve the response being measured.

Assay [1] relates to Human umbilical vein endothelial cells (HUVEC). The assay can be described thus: Vascular endothelial cell growth inhibitory test. Particulars: VEGF 120 ng/mL, culture 5 days, XTT reagent. The class given is cell-based. On the procedure: Human umbilical vein endothelial cells (HUVEC, purchased from KURABO) were cultured in a gas incubator (37° C., CO2 5%) in a vascular endothelial cell medium (Invitrogen) containing 5% fetal calf serum and a basic fibroblast growth factor (2.5 ng/mL). To be specific, HUVEC suspended in the aforementioned vascular endothelial cell medium (Invitrogen) containing 5% fetal calf serum were seeded into a 96 well flat-bottom plate (50 μL, 3000 cells each well). After culturing overnight, various concentrations of test substance and the final concentration (120 ng/mL) of vascular endothelial growth factor (VEGF) were dissolved in a vascular endothelial cell medium (Invitrogen) containing 5% fetal calf serum and added to each well (50 μL). After culturing for 5 days, an XTT reagent (Wako Pure Chemical Industries, Ltd.) was added to each well (10 μL), and reacted in a gas incubator (37° C., CO2 5%) for 2-3 hr. The absorbance at 450 nm was measured by a microtiter plate reader, and the cell growth inhibitory activity was determined.
Background: Tetrazolium dyes change colour on reduction, which living cells bring about.

Assay [2] deals with T1, PDGFR Alpha Receptor Kinase (PDGFRalpha) (Homo sapiens, UniProt P16234).
T1 construct: PDGFRalpha intracellular domain protein (UPSTATE); purchased UPSTATE
The assay can be described thus: Determination of PDGFR alpha receptor kinase (PDGFRalpha) inhibitory activity (alpha screen). The class given is biochemical. Conditions: PDGFRalpha intracellular domain protein, 25 μM ATP buffer; read-out: IC50 value (PDGFRalpha kinase inhibition). The method, then:
The test compound dissolved in dimethyl sulfoxide (DMSO) was diluted with a buffer (50 mM Tris-HCl, pH 7.5, 5 mM MgCl2, 5 mM MnCl2, 2 mM dithiothreitol, 0.01% Tween-20).
Acceptor beads: PerkinElmer for alpha screen assay) was added to quench the reaction. The reaction solution was stood at 25° C. for 16 hr, and the count was measured using a plate reader·Fusion™ (manufactured by PerkinElmer). The kinase inhibitory rate (%) of the test compound was calculated by the following formula.
(§1) Inhibitory rate(%)=(1−(count of test compound−blank)÷(control−blank))×100
(§2) wherein the count of the solution reacted without addition of the compound is “control” and the count of the solution without addition of the compound and ATP is “blank”.

Assay [3] concerns the target T2, VEGF Receptor 2 Kinase (VEGFR2) (Homo sapiens, UniProt P35968).
T2 construct: made in house; host or cells: SF-21 insect cells, recombinant baculovirus BAC-VEGFR2 (pFASTBAC1)
Put plainly: Determination of VEGF receptor 2 kinase (VEGFR2) inhibitory activity (alpha screen). The class given is biochemical. Conditions: VEGFR2 intracellular domain protein, 25 μM ATP buffer, read-out: inhibitory rate (kinase inhibitory rate of VEGFR2). On the procedure:
For cloning of human VEGF receptor 2 (hereinafter to be abbreviated as VEGFR2) gene, PCR was performed using cDNA Libraries Human Placenta (Clontech) as a template. The primer used for PCR was prepared by, based on the information of the base sequence (Genbank Accession AF035121) of VEGFR2 gene, adding a base sequence encoding the flag peptide and a restriction enzyme recognition sequence to the base sequence (2671-4374 of Genbank Accession AF035121) encoding the VEGFR2 intracellular domain, so that a flag tag would be added to the N terminal of the protein. The primer base sequence is shown in the following.
PCR reaction was carried out using a KOD-plus kit (TOYOBO). The obtained PCR product was electrophoresed on an agarose gel (1%), and a DNA fragment amplified by PCR was recovered from the gel and digested with restriction enzymes Sal I and Sph I. The DNA after the restriction enzyme treatment was electrophoresed on an agarose gel (1%), and the obtained DNA fragment was recovered and ligated to the plasmid pFASTBAC1 (Invitrogen) digested with restriction enzymes Sal I and Sph I to give an expression plasmid pFB-VEGFR2. The base sequence of the inserted fragment was confirmed to have matched with the base sequence (2671-4374 of Genbank Accession AF035121) of the VEGFR2 intracellular domain. Furthermore, virus stock BAC-VEGFR2 of the recombinant Baculovirus was prepared using BAC-TO-BAC Baculovirus Expression System (Invitrogen).
SF-21 cells were inoculated into 1 L of Sf-900IISFM medium (Invitrogen) containing 10% fetal calf serum (trace), 50 mg/L Gentamicin (Invitrogen) and 0.1% Pluronic F-68 (Invitrogen) at 1×10^6 cells/ml, and shake culture was performed using a 2 L Erlenmeyer flask at 27° C., 100 rpm. After 24 hr of culture, recombinant Baculovirus BAC-VEGFR2 (13.4 mL) was added, and the culture was continued for 3 days. The culture medium was centrifuged at 2,000 rpm for 5 min to give virus-infected cells. The infected cells were washed with phosphate buffered saline (Invitrogen), centrifuged under the same conditions, and preserved at −80° C. The cryopreserved cells were thawed in ice, suspended in 30 mL of buffer A (Tris buffer, pH 7.4, containing 20% glycerol and 0.15M NaCl (50 mM)) supplemented with Complete Protease Inhibitor (Boehringer), and disrupted three times using a polytron homogenizer (Kinematica) at 20,000 rpm, 30 sec. The disrupt was clarified by centrifugation at 40,000 rpm, 30 min and filtered through a 0.45 μm filter. The filtrate was passed through a column packed with Anti-FLAG M2 Affinity Gel (Sigma Ltd., 4 mL) at a flow rate of about 0.5 mL/min. The column was washed with buffer A and eluted with buffer A containing 100 μg/mL FLAG peptide. The eluate was concentrated by Vivaspin 20 (Viva Science) having a fraction molecular weight of 30K. The concentrate was applied to NAP™ 25 column (Amersham Biosciences) equilibrated with buffer A for buffer exchange. The fractions containing the VEGFR2 intracellular domain protein were collected, glycerol was added to the final concentration of 50% and the fractions cryopreserved at ˜80° C.
The test compound dissolved in dimethyl sulfoxide (DMSO) was diluted with a buffer (50 mM Tris-HCl, pH 7.5, 5 mM MgCl2, 5 mM MnCl2, 2 mM dithiothreitol, 0.01% Tween-20). A buffer (10 μl) containing 50 ng/ml VEGFR2 intracellular domain protein and 250 ng/ml biotin-labeled polypeptide biotinyl-poly-Glu:Tyr (4:1) (CIS Bio International) was added to the compound solution (5 μl). A buffer (10 μl) containing 25 μM ATP was added to the obtained mixture, the mixture was allowed to react at 25° C. for 5 min. Then, 25 μl of a stop solution (100 mM EDTA·2 sodium salt, 62.5 mM HEPES buffer (pH 7.4), 250 mM NaCl, 0.1% bovine serum albumin, 10 μg/ml Streptavidin Donor beads: PerkinElmer for alpha screen assay, 10 μg/ml Anti-phosphotyrosine (P-Tyr-100) Acceptor beads: PerkinElmer for alpha screen assay) was added to quench the reaction. […]

Assay [4] concerns the target T3, TIE2 Receptor Kinase (TIE2) (Homo sapiens, UniProt Q02763).
T3 construct: TIE2 intracellular domain protein (UPSTATE); purchased UPSTATE
Put plainly: Determination of TIE2 receptor kinase (TIE2) inhibitory activity (alpha screen). The class given is biochemical. Conditions: TIE2 intracellular domain protein, 5 μM ATP buffer; read-out: IC50 value (TIE2 kinase inhibition). The method, then:
The test compound dissolved in dimethyl sulfoxide (DMSO) was diluted with a buffer (50 mM Tris-HCl, pH 7.5, 5 mM MgCl2, 5 mM MnCl2, 2 mM dithiothreitol, 0.01% Tween-20). A buffer (10 μl) containing 50 ng/ml TIE2 intracellular domain protein (UPSTATE) and 250 ng/ml biotin-labeled polypeptide biotinyl-poly-Glu:Tyr (4:1) (CIS Bio International) was added to the compound solution (5 μl). At 5 min after mixing a kinase enzyme, the compound and a biotin-labeled polypeptide, a buffer (10 μl) containing 5 μM ATP was added to the obtained mixture, the mixture was allowed to react at 25° C. for 10 min. Then, 25 μl of a stop solution (100 mM EDTA·2 sodium salt, 62.5 mM HEPES buffer (pH 7.4), 250 mM NaCl, 0.1% bovine serum albumin, 10 μg/ml Streptavidin Donor beads: PerkinElmer for alpha screen assay, 10 μg/ml Anti-phosphotyrosine (P-Tyr-66) Acceptor beads: PerkinElmer for alpha screen assay) was added to quench the reaction. The reaction solution was stood at 25° C. for 16 hr, and the count was measured using a plate reader·Fusion™ (manufactured by PerkinElmer). The kinase inhibitory rate (%) of the test compound was calculated by the following formula.
as §1, §2
Prism (Graphpad Software) according to the nonlinear-regression sigmoidal dose-response (variable slope) analysis method.

Molecules are shown by their SMILES. Structures can show the parent of a compound that is named as a salt.

T3 sequence (Q02763 770-1124 limits assumed): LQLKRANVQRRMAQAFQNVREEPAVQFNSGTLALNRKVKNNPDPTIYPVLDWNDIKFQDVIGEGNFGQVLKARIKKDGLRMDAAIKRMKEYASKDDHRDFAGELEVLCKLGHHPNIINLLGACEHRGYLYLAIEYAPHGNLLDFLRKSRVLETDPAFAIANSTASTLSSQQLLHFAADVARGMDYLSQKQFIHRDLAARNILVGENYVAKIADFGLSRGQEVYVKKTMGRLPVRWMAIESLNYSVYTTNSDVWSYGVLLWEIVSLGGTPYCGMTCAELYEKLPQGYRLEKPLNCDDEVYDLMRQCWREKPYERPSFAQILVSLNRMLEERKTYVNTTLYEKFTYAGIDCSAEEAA
T2 sequence (P35968 786-1356 limits assumed): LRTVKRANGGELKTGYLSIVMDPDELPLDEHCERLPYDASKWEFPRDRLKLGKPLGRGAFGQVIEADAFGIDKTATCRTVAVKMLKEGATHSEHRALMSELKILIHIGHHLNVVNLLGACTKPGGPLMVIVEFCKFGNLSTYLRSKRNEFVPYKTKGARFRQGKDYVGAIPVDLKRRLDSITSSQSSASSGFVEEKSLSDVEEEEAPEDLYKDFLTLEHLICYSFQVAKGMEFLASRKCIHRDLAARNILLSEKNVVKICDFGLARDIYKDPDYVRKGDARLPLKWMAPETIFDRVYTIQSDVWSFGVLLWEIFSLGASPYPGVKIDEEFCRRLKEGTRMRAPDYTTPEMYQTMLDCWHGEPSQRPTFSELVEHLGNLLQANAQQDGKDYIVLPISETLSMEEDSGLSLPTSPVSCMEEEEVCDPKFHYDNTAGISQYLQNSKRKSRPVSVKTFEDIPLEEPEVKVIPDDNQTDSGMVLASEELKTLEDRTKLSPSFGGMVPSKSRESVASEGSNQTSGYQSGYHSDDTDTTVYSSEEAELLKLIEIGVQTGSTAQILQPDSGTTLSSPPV
T1 sequence (P16234 550-1089 limits assumed): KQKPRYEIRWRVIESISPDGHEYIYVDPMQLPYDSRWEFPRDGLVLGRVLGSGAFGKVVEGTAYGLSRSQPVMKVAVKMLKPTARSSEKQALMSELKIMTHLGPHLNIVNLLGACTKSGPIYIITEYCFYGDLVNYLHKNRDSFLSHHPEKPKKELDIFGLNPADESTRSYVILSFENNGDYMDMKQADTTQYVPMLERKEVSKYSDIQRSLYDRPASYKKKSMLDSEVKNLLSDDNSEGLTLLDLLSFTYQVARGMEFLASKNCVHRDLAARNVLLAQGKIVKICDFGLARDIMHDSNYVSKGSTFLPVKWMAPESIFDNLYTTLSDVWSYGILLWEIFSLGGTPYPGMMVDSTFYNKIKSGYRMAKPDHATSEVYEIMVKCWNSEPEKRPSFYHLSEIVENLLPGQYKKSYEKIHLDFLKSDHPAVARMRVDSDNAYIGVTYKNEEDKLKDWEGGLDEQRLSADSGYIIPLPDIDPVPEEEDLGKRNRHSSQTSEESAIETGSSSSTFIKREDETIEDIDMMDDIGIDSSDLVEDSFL

Consider `O=C(Nc1cccc(C(F)(F)F)c1)Nc1ccc(Oc2ncnc3ccn(CCOCCO)c23)cc1Cl` [Example 14, N-[2-chloro-4-({5-[2-(2-hydroxyethoxy)ethyl]-5H-pyrrolo[3,2-d]pyrimidin-4-yl}oxy)phenyl]-N′-[3-(trifluoromethyl)phenyl]urea], for which the IC50 in assay [1] (Homo sapiens, 120 h) was 33 nM; in assay [2], ≤ 500 nM; in assay [4], ≤ 5 nM. Further, the inhibition at 1 µM in assay [3] was ≥ 90%.

`Cn1ccc2ncnc(Oc3ccc(NC(=O)Nc4cccc(C(F)(F)F)c4)c(F)c3)c21` [Example 29, N-{2-fluoro-4-[(5-methyl-5H-pyrrolo[3,2-d]pyrimidin-4-yl)oxy]phenyl}-N′-[3-(trifluoromethyl)phenyl]urea]: the IC50 in assay [1] stood at 4.4 nM.

In turn, `Cn1ccc2ncnc(Oc3ccc(NC(=O)Nc4cc(C(F)(F)F)ccn4)c(Cl)c3)c21` [Example 30, N-{2-chloro-4-[(5-methyl-5H-pyrrolo[3,2-d]pyrimidin-4-yl)oxy]phenyl}-N′-[4-(trifluoromethyl)pyridin-2-yl]urea] displayed an IC50 in assay [1] of 2.7 nM. In assay [3], the inhibition at 1 µM was ≥ 90%.

In assay [1] (Homo sapiens, 120 h), `O=C(Nc1cccc(C(F)(F)F)c1)Nc1ccc(Oc2ncnc3cc[nH]c23)cc1Cl` [Example 39, N-[2-chloro-4-(5H-pyrrolo[3,2-d]pyrimidin-4-yloxy)phenyl]-N′-[3-(trifluoromethyl)phenyl]urea] returned an IC50 of 4.8 nM.

With `Cn1ccc2ncnc(Oc3ccc(NC(=O)Nc4cc(C(F)(F)F)ccc4F)c(Cl)c3)c21` [Example 40, N-{2-chloro-4-[(5-methyl-5H-pyrrolo[3,2-d]pyrimidin-4-yl)oxy]phenyl}-N′-[2-fluoro-5-(trifluoromethyl)phenyl]urea], the IC50 in assay [1] (Homo sapiens, 120 h) is 11 nM; in assay [4], ≤ 5 nM. Further, in assay [3], the inhibition at 1 µM is ≥ 90%.

`Cn1ccc2ncnc(Oc3ccc(NC(=O)Nc4cc(C(F)(F)F)ccn4)c(Cl)c3)c21` [Example 60, N-{2-chloro-4-[(5-methyl-5H-pyrrolo[3,2-d]pyrimidin-4-yl)oxy]phenyl}-N′-[4-(trifluoromethyl)pyridin-2-yl]urea Methanesulfonic Acid Salt]: the concentration for half-maximal inhibition (IC50) is 6.5 nM in assay [1] and ≤ 5 nM in assay [4].

Turning to `O=C(Nc1cccc(C(F)(F)F)c1)Nc1ccc(Oc2ncnc3cc[nH]c23)cc1Cl` [Example 116, N-[2-chloro-4-(5H-pyrrolo[3,2-d]pyrimidin-4-yloxy)phenyl]-N′-[3-(trifluoromethyl)phenyl]urea p-toluenesulfonic Acid Salt], the concentration for half-maximal inhibition (IC50) was 3.4 nM in assay [1], ≤ 500 nM in assay [2] and ≤ 5 nM in assay [4]. In addition, the inhibition at 1 µM in assay [3] is ≥ 90%.

As for `Cc1cc2ncnc(Oc3ccc(NC(=O)Nc4cccc(C(F)(F)F)c4)c(Cl)c3)c2n1C` [Example 124, N-{2-chloro-4-[(5,6-dimethyl-5H-pyrrolo[3,2-d]pytimidin-4-yl)oxy]phenyl}-N′-[3-(trifluoromethyl)phenyl]urea], in assay [1], half-maximal inhibition (IC50) was put at 13 nM.

In assay [1] (hydrochloride), `Cc1cc2ncnc(Oc3ccc(NC(=O)Nc4cccc(C(F)(F)F)c4)c(Cl)c3)c2n1C` [Example 134, N-{2-chloro-4-[(5,6-dimethyl-5H-pyrrolo[3,2-d]pyrimidin-4-yl)oxy]phenyl}-N′-[3-(trifluoromethyl)phenyl]urea hydrochloride] had an IC50 of 5.4 nM.

Consider `Cn1ccc2ncnc(Oc3ccc(NC(=O)Nc4cccc(C(F)(F)F)c4)c(F)c3)c21` [Example 137, N-{2-fluoro-4-[(5-methyl-5H-pyrrolo[3,2-d]pyrimidin-4-yl)oxy]phenyl}-N′-[3-(trifluoromethyl)phenyl]urea Hydrochloride], for which the IC50 in assay [1] (Homo sapiens, 120 h) is 3.6 nM; in assay [4], ≤ 5 nM. Besides, the inhibition at 1 µM in assay [3] is ≥ 90%.
